Source: publication PMC10233829 (ACS Omega, 2023)
In brackets after ≈: the same amount, converted by molar mass.

Legend:
S. aureus NCTC 4163 = assay: MIC, twofold microdilution, standard strain; format: cell-based; details: Staphylococcus aureus, NCTC4163, 18 h
S. aureus ATCC 25923 = assay: MIC, twofold microdilution, standard strain; format: cell-based; details: Staphylococcus aureus, ATCC25923, 18 h
S. aureus ATCC 6538 = assay: MIC, twofold microdilution, standard strain; format: cell-based, Staphylococcus aureus; details: Staphylococcus aureus, ATCC6538; standard strain, 18 h
S. aureus ATCC 29213 = assay: MIC, twofold microdilution, standard strain; format: cell-based; details: Staphylococcus aureus, ATCC29213, 18 h
[1] = tested on: S. epidermidis ATCC 12228; assay: MIC, twofold microdilution, standard strain; format: cell-based; details: Staphylococcus epidermidis, ATCC12228, 18 h
[2] = tested on: S. epidermidis ATCC 35984; assay: MIC, twofold microdilution, standard strain; format: cell-based; details: Staphylococcus epidermidis, ATCC35984, 18 h
P. aeruginosa ATCC 15442 = assay: MIC, twofold microdilution, standard strain; format: cell-based, Pseudomonas aeruginosa; details: Pseudomonas aeruginosa, ATCC15442; standard strain, 18 h
E. coli ATCC 25922 = assay: MIC, twofold microdilution, standard strain; format: cell-based, Escherichia coli; details: Escherichia coli, ATCC25922; standard strain, 18 h
S. aureus 180 = assay: MIC, twofold microdilution, clinical strain; format: cell-based; details: Staphylococcus aureus, 18 h
S. aureus 5595 = assay: MIC, twofold microdilution, clinical strain; format: cell-based; details: Staphylococcus aureus, 18 h
S. aureus T5595 = assay: MIC, twofold microdilution, clinical strain; format: cell-based, Staphylococcus aureus; details: Staphylococcus aureus, T5595, 18 h
S. aureus T5591 = assay: MIC, twofold microdilution, clinical strain; format: cell-based, Staphylococcus aureus; details: Staphylococcus aureus, T5591, 18 h
S. epidermidis 4341 = assay: MIC, twofold microdilution, clinical strain; format: cell-based; details: Staphylococcus epidermidis, 18 h
S. epidermidis 5253 = assay: MIC, twofold microdilution, clinical strain; format: cell-based, Staphylococcus epidermidis; details: Staphylococcus epidermidis, 5253, 18 h
S. epidermidis KR4243/1 = assay: MIC, twofold microdilution, clinical strain; format: cell-based; details: Staphylococcus epidermidis, 18 h
S. pasteuri KR 4358 = assay: MIC, twofold microdilution, clinical strain; format: cell-based; details: Staphylococcus pasteuri, KR4358, 18 h
P. aeruginosa 37 = assay: MIC, twofold microdilution, clinical strain; format: cell-based; details: Pseudomonas aeruginosa, 18 h
P. aeruginosa 659 = assay: MIC, twofold microdilution, clinical strain; format: cell-based; details: Pseudomonas aeruginosa, 18 h
E. coli 951 = assay: MIC, twofold microdilution, clinical strain; format: cell-based; details: Escherichia coli, 18 h
E. coli 520 = assay: MIC, twofold microdilution, clinical strain; format: cell-based; details: Escherichia coli, 18 h
E. coli 600 = assay: MIC, twofold microdilution, clinical strain; format: cell-based, Escherichia coli; details: Escherichia coli, 600, 18 h
E. cloacae 8 = assay: MIC, twofold microdilution, clinical strain; format: cell-based, Escherichia cloacae; details: Enterobacter cloacae, 8; clinical strain, 18 h
K. pneumoniae 28 = assay: MIC, twofold microdilution, clinical strain; format: cell-based; details: Klebsiella pneumoniae, 18 h
K. pneumoniae 510 = assay: MIC, twofold microdilution, clinical strain; format: cell-based, Klebsiella pneumoniae; details: Klebsiella pneumoniae, 510; clinical strain, 18 h
M. tuberculosis H37Rv = assay: Tuberculostatic activity, Microplate Alamar Blue Assay (MIC); format: cell-based, Mycobacterium tuberculosis; details: Mycobacterium tuberculosis, H37RV; MABA; read-out: MIC M. tuberculosis H37Rv
[3] = tested on: M. tuberculosis Spec. 192; assay: as above; format: cell-based; details: Mycobacterium tuberculosis, MABA, read-out: MIC M. tuberculosis Spec. 192 (sensitive to tuberculostatics)
M. tuberculosis Spec 210 = assay: microbe, parasite or virus in culture; format: cell-based, Mycobacterium tuberculosis; details: M. tuberculosis Spec. 210
PC3 cells = assay: MTT assay, cytotoxic activity; format: cell-based, human; details: Homo sapiens, PC-3, 72 h, MTT, 72 h
Experimental: Metastatic prostate cancer (PC3) and human immortal keratinocyte (HaCaT) cell lines were purchased from the American Type Culture Collection (ATCC, Rockville, MD, USA) and cultured in MEM (minimal essential medium, Thermo Sci, USA), RPMI 1640 (Roswell Park Memorial Institute, Biowest SAS, France), and DMEM (Dulbecco’s Modified Eagle’s Medium, Biowest SAS, France). Cells were seeded in 6 mL medium in a tissue culture flask (50 mL) in a 37 °C/5% CO2 humidified incubator. […] MTT analysis was performed according to a previous study.[59] Untreated cells were used as controls. Cell absorbance results were inserted into the formula for the relative MTT level (%). It allows to calculate the viability of cells under the influence of the tested compounds. Cell viability was expressed as the percentage of MTT reduction in cells treated with tested compounds compared to the control sample. The relative MTT level was calculated using the formula [100%] = A/B × 100% where A—the test sample absorbance and B—the control sample absorbance.

[4] = MTT assay, cytotoxic activity; format: cell-based; details: human, HaCaT cells (immortal keratinocytes); MTT, 72 h, normal cell line; read-out: IC50 HaCaT
Experimental: Cells were seeded in 6 mL medium in a tissue culture flask (50 mL) in a 37 °C/5% CO2 humidified incubator. […] MTT analysis was performed according to a previous study.[59] Untreated cells were used as controls. Cell absorbance results were inserted into the formula for the relative MTT level (%). It allows to calculate the viability of cells under the influence of the tested compounds. Cell viability was expressed as the percentage of MTT reduction in cells treated with tested compounds compared to the control sample. The relative MTT level was calculated using the formula [100%] = A/B × 100% where A—the test sample absorbance and B—the control sample absorbance.

[5] = tested on: Staphylococci (standard strains); assay: MIC, standard Gram-positive strains as a panel; format: cell-based, S. aureus, S. epidermidis; details: standard Gram-positive strains of Table 1; read-out: MIC toward standard Staphylococci (range over strains)
[6] = tested on: P. aeruginosa ATCC 15442 and E. coli ATCC 25922; assay: MIC, standard Gram-negative rods as a panel; format: cell-based; details: P. aeruginosa ATCC 15442, E. coli ATCC 25922; read-out: MIC against standard Gram-negative rods (range over strains)
[7] = tested on: clinical bacterial strains; assay: MIC, clinical isolates as groups of strains; format: cell-based; details: S. aureus T5595 and T5591

`O=C(O)c1cn(C2CC2)c2cc(N3CCN(C(=O)CCCCCCCCCCBr)CC3)c(F)cc2c1=O` [Compound 13, 7-[4-(11-Bromoundekanoyl)-piperazin-1-yl]-1-cyclopropyl-6-fluoro-4-oxo-1,4-dihydro-quinoline-3-carboxylic Acid] gave an MIC (S. aureus NCTC 4163) of 6.4 µg/mL (≈ 11.1 µM), an MIC (S. aureus ATCC 25923) of 12.8 µg/mL (≈ 22.1 µM) and an MIC (S. aureus ATCC 6538) of 12.8 µg/mL (≈ 22.1 µM). The MIC (S. aureus ATCC 29213) was 12.8 µg/mL (≈ 22.1 µM), the MIC [1] was 12.8 µg/mL (≈ 22.1 µM) and the MIC [2] was 12.8 µg/mL (≈ 22.1 µM). For the same compound, the MIC (P. aeruginosa ATCC 15442) was over 25.6 µg/mL, the MIC (E. coli ATCC 25922) was 25.6 µg/mL (≈ 44.3 µM) and the MIC (S. aureus 180) was over 25.6 µg/mL. It also gave an MIC (S. aureus 5595) of over 25.6 µg/mL, an MIC (S. aureus T5595) of over 25.6 µg/mL and an MIC (S. aureus T5591) of over 25.6 µg/mL. It also gave an MIC (S. epidermidis 4341) of over 25.6 µg/mL, an MIC (S. epidermidis 5253) of over 25.6 µg/mL and an MIC (S. epidermidis KR4243/1) of over 25.6 µg/mL. It also gave an MIC (S. pasteuri KR 4358) of over 25.6 µg/mL, an MIC (P. aeruginosa 37) of over 25.6 µg/mL and an MIC (P. aeruginosa 659) of over 25.6 µg/mL. For the same compound, the MIC (E. coli 951) was over 25.6 µg/mL, the MIC (E. coli 520) was over 25.6 µg/mL and the MIC (E. coli 600) was over 25.6 µg/mL. For the same compound, the MIC (E. cloacae 8) was over 25.6 µg/mL, the MIC (K. pneumoniae 28) was over 25.6 µg/mL and the MIC (K. pneumoniae 510) was over 25.6 µg/mL. For the same compound, the MIC (M. tuberculosis H37Rv) was 2 µg/mL (≈ 3.46 µM), the MIC [3] was 4 µg/mL (≈ 6.91 µM) and the “fold more effective than the reference tuberculostatics” value (M. tuberculosis Spec 210) was 8–32 fold. For the same compound, the IC50 (PC3 cells) was 33.7 ± 8.2 µM and the IC50 at 72 h [4] was 93.4 ± 10.1 µM.
Compound `O=C(O)c1cn(C2CC2)c2cc(N3CCN(C(=O)CCCCCCl)CC3)c(F)cc2c1=O` [Compound 7, 7-[4-(6-Chlorohexanoyl)-piperazin-1-yl]-1-cyclopropyl-6-fluoro-4-oxo-1,4-dihydro-quinoline-3-carboxylic Acid] has an MIC (S. aureus NCTC 4163) of 0.2 µg/mL (≈ 0.431 µM), an MIC (S. aureus ATCC 25923) of 0.2 µg/mL (≈ 0.431 µM) and an MIC (S. aureus ATCC 6538) of 0.2 µg/mL (≈ 0.431 µM). It also gave an MIC (S. aureus ATCC 29213) of 0.2 µg/mL (≈ 0.431 µM), an MIC [1] of 0.4 µg/mL (≈ 0.862 µM) and an MIC [2] of 0.2 µg/mL (≈ 0.431 µM). The MIC (P. aeruginosa ATCC 15442) was 12.8 µg/mL (≈ 27.6 µM), the MIC (E. coli ATCC 25922) was 0.8 µg/mL (≈ 1.72 µM) and the MIC (S. aureus 180) was 0.5 µg/mL (≈ 1.08 µM). The MIC (S. aureus 5595) was 0.5 µg/mL (≈ 1.08 µM), the MIC (S. aureus T5595) was 0.4 µg/mL (≈ 0.862 µM) and the MIC (S. aureus T5591) was 0.4 µg/mL (≈ 0.862 µM). For the same compound, the MIC (S. epidermidis 4341) was 25.6 µg/mL (≈ 55.2 µM), the MIC (S. epidermidis 5253) was over 25.6 µg/mL and the MIC (S. epidermidis KR4243/1) was 0.2 µg/mL (≈ 0.431 µM). It also gave an MIC (S. pasteuri KR 4358) of 0.2 µg/mL (≈ 0.431 µM), an MIC (P. aeruginosa 37) of over 25.6 µg/mL and an MIC (P. aeruginosa 659) of over 25.6 µg/mL. The MIC (E. coli 951) was over 25.6 µg/mL, the MIC (E. coli 520) was 6.4 µg/mL (≈ 13.8 µM) and the MIC (E. coli 600) was 6.4 µg/mL (≈ 13.8 µM). For the same compound, the MIC (E. cloacae 8) was 16 µg/mL (≈ 34.5 µM), the MIC (K. pneumoniae 28) was over 25.6 µg/mL and the MIC (K. pneumoniae 510) was over 25.6 µg/mL. The MIC (M. tuberculosis H37Rv) was 0.5 µg/mL (≈ 1.08 µM), the MIC [3] was 0.5 µg/mL (≈ 1.08 µM) and the IC50 (PC3 cells) was over 100 µM. The IC50 at 72 h [4] was over 100 µM, the MIC [5] was 0.1 to 0.8 µg/mL (≈ 0.216 to 1.72 µM) and the MIC [6] was at most 1 µg/mL. The “share of the reference (CP) activity” value [7] was 62.5%.
